Data on one molecule can be found in US20240299416A1, “TREATMENT OF NF-kB-MEDIATED DISEASE” (ReveraGen BioPharma, Inc., priority 2021, published 2024).

Test [1] deals with boys with DMD. Put plainly: VBP15-004 (VISION-DMD) Phase 2b efficacy at 24 weeks. Format: in vivo, human. From the text: The second period of 24 weeks, where all participants receive vamorolone treatment on either of the two dose levels, will continue to capture additional longer-term safety and tolerability data.
Test [2] concerns boys with DMD. Put plainly: VBP15-003/VBP15-LTE motor outcomes over 18 months vs CINRG DNHS. Type of test: in vivo, human. The following applies: vs corticosteroid-naïve participants, ANCOVA. An excerpt: Assessments of efficacy were motor outcomes (primary outcome: time to stand from supine [TTSTAND]; secondary outcomes: time to run/walk 10 meters [TTRW], time to climb four stairs [TTCLIMB], distance covered in 6-minute walk test [6MWT], and the North Star Ambulatory Assessment [NSAA]). 6MWT and NSAA were not assessed in most CINRG DNHS participants and were not compared to vamorolone-treated participants. According to standard operating procedures, clinical evaluators were trained to harmonize the CINRG vamorolone, CINRG DNHS, and CINRG prednisone studies. Reliability of these outcomes (percent coefficient of variation) has been reported for the VBP15-002/VBP15-003 studies. Assessments were done at baseline (VBP15-002 entry), 24 weeks (VBP15-003 last visit), and 18 months (VBP15-LTE midpoint assessment at 12 months).
Only participants completing VBP15-002 and VBP15-003 were eligible to enroll in VBP15-LTE. […]
Statistical analyses were done on paired longitudinal outcome data using an analysis of covariance (ANCOVA) approach with change from baseline (VBP15-002) to month 18 (midpoint of VBP15-LTE). […] For the vamorolone-treated participants, age was calculated as (date of informed consent minus birthdate)/365.25. For the DNHS participants, age was calculated as (date of baseline visit used minus birthdate)/365.25. […]

As for `C[C@@H]1C[C@H]2[C@@H]3CCC4=CC(=O)C=C[C@]4(C)C3=CC[C@]2(C)[C@@]1(O)C(=O)CO` [Vamorolone, 17α,21-dihydroxy-16α-methylpregna-1,4,9(11)-triene-3,20-dione], in test [1] (2 mg/kg/day, 24 weeks, p=0.009), the 6MWT versus placebo entry is “superiority”. Also, in test [1] (2 mg/kg/day, 24 weeks, p=0.02), the “TTSTAND velocity versus placebo” value is “superiority”. In test [1] (6 mg/kg/day group, baseline), this molecule showed a TTSTAND of 6.0 s. Further, the “efficacy endpoints versus prednisone” value in test [1] (6 mg/kg/day vs prednisone 0.75 mg/kg/day, 24 weeks) was “no statistically significant differences”. Besides, the TTRW versus placebo result in test [1] (6 mg/kg/day, 24 weeks, p=0.002) is listed as “superiority”. Also, the 6MWT versus placebo result in test [1] (6 mg/kg/day, 24 weeks, p=0.003) was “superiority”. Moreover, in test [2], the “TTCLIMB, LS mean difference” value was -0.34 s and the “TTRW, LS mean difference” value was -0.84 s.
